Test [1] deals with T1, hGIPR (Homo sapiens, UniProt P48546).
T1 construct: expressed in transfected cells
T1 sequence (P48546 22-466): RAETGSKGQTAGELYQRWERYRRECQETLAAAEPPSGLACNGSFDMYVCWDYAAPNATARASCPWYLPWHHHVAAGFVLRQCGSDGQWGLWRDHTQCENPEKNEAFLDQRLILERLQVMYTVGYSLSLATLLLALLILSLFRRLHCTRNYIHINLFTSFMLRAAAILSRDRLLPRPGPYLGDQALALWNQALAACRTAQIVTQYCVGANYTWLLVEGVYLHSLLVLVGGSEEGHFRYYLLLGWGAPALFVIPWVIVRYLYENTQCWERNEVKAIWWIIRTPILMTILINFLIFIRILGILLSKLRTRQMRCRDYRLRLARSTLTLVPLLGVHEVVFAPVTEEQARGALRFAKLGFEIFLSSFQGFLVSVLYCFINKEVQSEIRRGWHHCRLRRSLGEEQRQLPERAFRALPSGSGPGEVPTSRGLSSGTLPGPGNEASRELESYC
In words: Functional cAMP formation (HTRF) in HEK-293 clonal cells expressing hGIPR, 0.1% bovine casein, without or with 1.0% human serum albumin. It counts as cell-based. Particulars: for Emax: read-out: hGIPR Emax, % ± SEM; for EC50: geometric mean. The method, boiled down: (§1)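 Cells were stimulated with peptide for 30 min at 37° C, then intracellular cAMP was measured by competitive HTRF (665/620 nm ratio) and converted to nM using a cAMP standard curve. Relative EC50 and Emax came from four-parameter logistic fits of percent maximal response against peptide concentration.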
(cAMP levels reflect the balance of adenylyl cyclase and phosphodiesterase activity.)

Test [2] concerns the target hGLP-1R (Homo sapiens, UniProt P43220). In words: Functional cAMP formation (HTRF) in HEK-293 clonal cells expressing hGLP-1R, 0.1% bovine casein, without or with 1.0% human serum albumin. It counts as cell-based. Further details: expressed in transfected cells. Particulars: for EC50: geometric mean; for Emax: read-out: hGLP-1R Emax, % ± SEM. In short, it runs like this:
as §1

For test [3], the target named is T2, hGCGR (Homo sapiens, UniProt P47871).
T2 construct: expressed in transfected cells
Kind of test: Functional cAMP formation (HTRF) in HEK-293 clonal cells expressing hGCGR, 0.1% bovine casein, without or with 1.0% human serum albumin. It counts as cell-based. Particulars: geometric mean. The method, boiled down:
as §1

The target in test [4] is T3, human GIP receptor (hGIPR) (Homo sapiens, UniProt P48546).
T3 construct: expressed in transfected cells; crude membranes
T3 sequence (P48546 22-466): T1 sequence (P48546 22-466)
In words: [125I]-GIP binding, SPA with membranes of CHO cells expressing hGIPR.

In test [5] the target is T4, human Gcg receptor (hGcgR) (Homo sapiens, UniProt P47871).
T4 construct: expressed in transfected cells; crude membranes
In words: [125I]-Glucagon binding, SPA with membranes of HEK293 cells expressing hGcgR.

SMILES strings stand for the structures. Like-named read-outs stand apart in the source and are kept apart here.

Broadly, the Emax is the maximal effect, on the per cent scale that the assay sets. The EC50 is the concentration at which the effect is half-maximal. In general, Ki refers to a dissociation constant, usually derived from enzyme kinetics or from competition with a known ligand.

T4 sequence (P47871 26-477): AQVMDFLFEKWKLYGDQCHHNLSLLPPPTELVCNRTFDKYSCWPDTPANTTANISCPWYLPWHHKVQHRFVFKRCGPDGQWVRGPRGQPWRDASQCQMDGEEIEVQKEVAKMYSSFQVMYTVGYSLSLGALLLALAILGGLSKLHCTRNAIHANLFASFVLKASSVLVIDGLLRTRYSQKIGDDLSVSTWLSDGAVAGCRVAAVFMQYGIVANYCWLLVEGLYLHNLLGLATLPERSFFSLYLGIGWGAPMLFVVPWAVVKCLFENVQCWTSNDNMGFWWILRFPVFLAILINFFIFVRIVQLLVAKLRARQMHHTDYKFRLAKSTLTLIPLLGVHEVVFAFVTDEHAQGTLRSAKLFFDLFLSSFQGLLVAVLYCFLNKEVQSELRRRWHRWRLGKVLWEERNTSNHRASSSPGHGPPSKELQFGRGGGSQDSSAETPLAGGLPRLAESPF
T2 sequence (P47871 26-477): as above
hGLP-1R, sequence (P43220 24-463): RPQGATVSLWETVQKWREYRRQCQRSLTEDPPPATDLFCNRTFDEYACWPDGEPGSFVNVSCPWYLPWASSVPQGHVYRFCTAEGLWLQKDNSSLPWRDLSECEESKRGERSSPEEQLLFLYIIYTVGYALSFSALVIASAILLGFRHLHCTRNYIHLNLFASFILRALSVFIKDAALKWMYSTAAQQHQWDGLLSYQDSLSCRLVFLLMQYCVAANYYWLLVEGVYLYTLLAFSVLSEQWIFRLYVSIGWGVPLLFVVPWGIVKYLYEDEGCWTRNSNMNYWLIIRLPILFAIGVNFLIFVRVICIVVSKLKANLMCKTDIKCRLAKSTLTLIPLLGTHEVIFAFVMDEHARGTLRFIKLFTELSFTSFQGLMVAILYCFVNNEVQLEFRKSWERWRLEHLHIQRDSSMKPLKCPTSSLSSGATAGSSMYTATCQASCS

As for `CC[C@H](C)[C@H](NC(=O)[C@H](CC(C)C)NC(=O)[C@](C)(Cc1ccc(O)cc1)NC(=O)[C@@H](CCC(=O)O)NC(=O)[C@@H](NC(=O)[C@H](Cc1cccc(F)c1)NC(=O)[C@H](CCC(=O)O)NC(=O)C(C)(C)NC(=O)[C@H](CCC(N)=O)NC(=O)[C@H](C)NC(=O)[C@H](CCCCNC(=O)COCCOCCNC(=O)COCCOCCNC(=O)CC[C@H](NC(=O)CCCCCCCCCCCCC(=O)O)C(=O)O)NC(=O)[C@H](CCCN)NC(=O)[C@H](CC(=O)O)NC(=O)[C@H](CC(C)C)NC(=O)[C@](C)(CC(C)C)NC(=O)[C@@H](NC(=O)[C@H](CO)NC(=O)[C@H](Cc1ccncc1)NC(=O)[C@H](CC(=O)O)NC(=O)[C@H](CO)NC(=O)[C@@H](NC(=O)[C@](C)(Cc1ccccc1F)NC(=O)[C@@H](NC(=O)CNC(=O)[C@H](CCC(=O)O)NC(=O)C(C)(C)NC(=O)[C@@H](N)Cc1ccc(O)cc1)[C@@H](C)O)[C@@H](C)O)[C@@H](C)CC)[C@@H](C)CC)C(=O)N[C@@H](CCC(=O)O)C(=O)NCC(=O)NCC(=O)N[C@@H](CCCCNC(=O)COCCOCCNC(=O)COCCOCCNC(=O)CC[C@H](NC(=O)CCCCCCCCCCCCC(=O)O)C(=O)O)C(=O)N[C@@H](CO)C(=O)N[C@@H](CO)C(=O)NCC(=O)N[C@@H](C)C(=O)N1CCC[C@H]1C(=O)N1CCC[C@H]1C(=O)N1CCC[C@H]1C(=O)N[C@@H](CO)C(N)=O` [Example 64], the Emax in test [1] (HEK293, 0.1% bovine casein and 1.0% human serum albumin, 37° C., percent of maximal response to GIP(1-42)NH2) came out at 90.5 ± 3.44%; in test [1] (HEK293, percent of maximal response to GIP(1-42)NH2, 37° C., 0.1% bovine casein, arithmetic mean) it was 92.9 ± 3.06%; in test [2] (HEK293, 0.1% bovine casein and 1.0% human serum albumin, 37° C., percent of maximal response to GLP-1(7-36)NH2) it was 87.8 ± 0.301%; in test [2] (HEK293, percent of maximal response to GLP-1(7-36)NH2, 37° C., 0.1% bovine casein, arithmetic mean), 97.3 ± 4.13%. The EC50 in test [1] (cAMP, incubated at 37° C., 0.1% bovine casein (no human serum albumin), read-out: hGIPR EC50, nM (SEM, n)) was 0.0158 nM; in test [2] (0.1% bovine casein and 1.0% human serum albumin, 37° C., read-out: hGLP-1R EC50, nM (SEM, n)), 27 nM; in test [2] (cAMP, incubated at 37° C., 0.1% bovine casein (no human serum albumin), read-out: hGLP-1R EC50, nM (SEM, n)), 0.557 nM; in test [3] (0.1% bovine casein and 1.0% human serum albumin, 37° C., read-out: hGCGR EC50, nM (SEM, n)), more than 9950 nM; in test [3] (cAMP, incubated at 37° C., 0.1% bovine casein (no human serum albumin), read-out: hGCGR EC50, nM (SEM, n)), more than 9950 nM. In addition, the Ki in test [4] (human GIPR, geometric mean (SEM, n), read-out: Binding Affinity Ki, nM (SEM, n) hGIPR) was 0.161 nM; in test [5] (human GcgR, geometric mean (SEM, n), read-out: Binding Affinity Ki, nM (SEM, n) hGCGR), more than 4780 nM.
Take `CC[C@H](C)[C@H](NC(=O)[C@H](CC(C)C)NC(=O)[C@](C)(Cc1ccc(O)cc1)NC(=O)[C@@H](CCC(=O)O)NC(=O)[C@@H](NC(=O)[C@H](Cc1ccccc1)NC(=O)[C@H](CCC(=O)O)NC(=O)C(C)(C)NC(=O)[C@H](CCC(N)=O)NC(=O)[C@H](C)NC(=O)[C@H](CCCCNC(=O)COCCOCCNC(=O)CC[C@H](NC(=O)CCCCCCCCCOc1ccc(C(=O)O)cc1)C(=O)O)NC(=O)[C@H](CCCN)NC(=O)[C@H](CC(=O)O)NC(=O)[C@H](CC(C)C)NC(=O)[C@](C)(CC(C)C)NC(=O)[C@@H](NC(=O)[C@H](CO)NC(=O)[C@H](Cc1ccncc1)NC(=O)[C@H](CC(=O)O)NC(=O)[C@H](CO)NC(=O)[C@@H](NC(=O)[C@](C)(Cc1ccccc1F)NC(=O)[C@@H](NC(=O)CNC(=O)[C@H](CCC(=O)O)NC(=O)C(C)(C)NC(=O)[C@@H](N)Cc1ccc(O)cc1)[C@@H](C)O)[C@@H](C)O)[C@@H](C)CC)[C@@H](C)CC)C(=O)N[C@@H](CCC(=O)O)C(=O)NCC(=O)NCC(=O)N[C@@H](CCCCNC(=O)COCCOCCNC(=O)CC[C@H](NC(=O)CCCCCCCCCOc1ccc(C(=O)O)cc1)C(=O)O)C(=O)N[C@@H](CO)C(=O)N[C@@H](CO)C(=O)NCC(=O)N[C@@H](C)C(=O)N1CCC[C@H]1C(=O)N1CCC[C@H]1C(=O)N1CCC[C@H]1C(=O)N[C@@H](CO)C(N)=O` [Example 12]: the EC50 in test [1] (hGIPR EC50, nM (SEM, n), 0.1% bovine casein and 1.0% human serum albumin, 37° C.) was 0.745 nM; in test [1] (hGIPR EC50, nM (SEM, n), cAMP, incubated at 37° C., 0.1% bovine casein (no human serum albumin)), 0.0127 nM; in test [2] (hGLP-1R EC50, nM (SEM, n), 0.1% bovine casein and 1.0% human serum albumin, 37° C.), 20.3 nM; in test [3] (hGCGR EC50, nM (SEM, n), 0.1% bovine casein and 1.0% human serum albumin, 37° C.), more than 9950 nM; in test [3] (hGCGR EC50, nM (SEM, n), cAMP, incubated at 37° C., 0.1% bovine casein (no human serum albumin)) it was more than 9950 nM. Moreover, the Ki in test [4] amounted to 0.0575 nM; in test [5], 213 nM.

(Values after US20230265151A1, “GIP/GLP1 CO-AGONIST COMPOUNDS” (priority 2020, published 2023).)
